Reference: article PMC4518038, “Identification of a Class of Protein ADP-Ribosylating Sirtuins in Microbial Pathogens” (Molecular Cell, 2015)

Tests used:
EcoLplA = biological target: T1, EcoLplA (Escherichia coli, UniProt P32099); experiment: lipoylation of GcvH / GcvH-L, anti-lipoyl immunoblot; type: biochemical; details: co-substrate EcoGcvH, SauGcvH or SauGcvH-L; 1 uM LplA, 2 uM target protein, 30 min, 30 C
T1 construct: gene lplA
T1 sequence (P32099 2-338): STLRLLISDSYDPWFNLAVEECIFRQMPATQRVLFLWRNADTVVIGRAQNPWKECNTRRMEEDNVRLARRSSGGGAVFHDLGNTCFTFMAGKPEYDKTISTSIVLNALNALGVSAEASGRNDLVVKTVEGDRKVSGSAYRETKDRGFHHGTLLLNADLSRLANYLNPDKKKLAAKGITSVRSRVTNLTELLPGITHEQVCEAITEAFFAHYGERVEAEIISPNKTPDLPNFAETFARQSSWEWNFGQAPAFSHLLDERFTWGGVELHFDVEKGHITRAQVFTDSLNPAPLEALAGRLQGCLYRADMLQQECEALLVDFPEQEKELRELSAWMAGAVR

LplA2 (S. pyogenes) = biological target: T2, LplA2 (S. pyogenes) (Streptococcus pyogenes, UniProt P0DN72); experiment: lipoylation of GcvH-L, anti-lipoyl immunoblot; type: biochemical; details: co-substrate SpyGcvH-L; 1 uM LplA, 2 uM target protein, 30 min, 30 C
T2 construct: gene lplA

SauLplA2 = biological target: T3, SauLplA2 (Staphylococcus aureus, UniProt A0A0H3JX98); experiment: lipoylation of GcvH-L, anti-lipoyl immunoblot; type: biochemical; details: co-substrate SauGcvH-L; 1 uM LplA, 2 uM target protein, 30 min, 30 C
T3 construct: gene SAV0327
T3 sequence (A0A0H3JX98 1-340): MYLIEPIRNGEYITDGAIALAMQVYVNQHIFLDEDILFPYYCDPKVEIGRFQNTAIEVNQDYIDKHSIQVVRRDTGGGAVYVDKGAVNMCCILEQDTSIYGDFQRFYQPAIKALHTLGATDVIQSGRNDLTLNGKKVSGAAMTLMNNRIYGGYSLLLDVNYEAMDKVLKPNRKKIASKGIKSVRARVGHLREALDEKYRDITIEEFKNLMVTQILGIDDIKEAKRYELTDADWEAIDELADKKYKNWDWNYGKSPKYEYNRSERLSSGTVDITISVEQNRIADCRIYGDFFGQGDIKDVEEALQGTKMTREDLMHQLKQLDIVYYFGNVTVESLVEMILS

SauLplA1 = biological target: T4, SauLplA1 (Staphylococcus aureus, UniProt A0A0H3JR16); details: co-substrate SauGcvH or SauGcvH-L; 1 uM LplA, 2 uM target protein, 30 min, 30 C
T4 construct: gene SAV1028

SpySirTM = biological target: T5, SpySirTM (Streptococcus pyogenes, UniProt P0DN71); experiment: X-ray crystallography (crystal soak); type: binding; details: 1 mM ligand soak, 10 min; 2.03 A; active site; also ADP-ribosyl donor for lipoylated GcvH-L
T5 construct: gene SpyM50869; crystal model residues 3-292 (7-10 not visible)
T5 sequence (P0DN71 whole entry, the tested form may be a part): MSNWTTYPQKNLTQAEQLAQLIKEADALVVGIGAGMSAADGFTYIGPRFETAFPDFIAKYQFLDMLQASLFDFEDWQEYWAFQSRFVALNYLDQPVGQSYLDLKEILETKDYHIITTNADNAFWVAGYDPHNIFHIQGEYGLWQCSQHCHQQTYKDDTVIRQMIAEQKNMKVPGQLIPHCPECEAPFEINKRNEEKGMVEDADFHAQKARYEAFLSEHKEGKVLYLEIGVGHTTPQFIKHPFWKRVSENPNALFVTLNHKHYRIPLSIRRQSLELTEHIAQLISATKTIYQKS

T4 sequence (A0A0H3JR16 whole entry): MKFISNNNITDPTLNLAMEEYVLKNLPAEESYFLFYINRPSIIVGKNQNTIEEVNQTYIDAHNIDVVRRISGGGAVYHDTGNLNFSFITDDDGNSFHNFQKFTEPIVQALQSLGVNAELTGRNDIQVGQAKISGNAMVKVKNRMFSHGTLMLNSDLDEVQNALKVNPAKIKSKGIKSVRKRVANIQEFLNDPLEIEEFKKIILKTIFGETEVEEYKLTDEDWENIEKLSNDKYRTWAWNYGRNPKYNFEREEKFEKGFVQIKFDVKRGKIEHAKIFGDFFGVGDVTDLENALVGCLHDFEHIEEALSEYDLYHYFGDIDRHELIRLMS
T2 sequence (P0DN72 whole entry): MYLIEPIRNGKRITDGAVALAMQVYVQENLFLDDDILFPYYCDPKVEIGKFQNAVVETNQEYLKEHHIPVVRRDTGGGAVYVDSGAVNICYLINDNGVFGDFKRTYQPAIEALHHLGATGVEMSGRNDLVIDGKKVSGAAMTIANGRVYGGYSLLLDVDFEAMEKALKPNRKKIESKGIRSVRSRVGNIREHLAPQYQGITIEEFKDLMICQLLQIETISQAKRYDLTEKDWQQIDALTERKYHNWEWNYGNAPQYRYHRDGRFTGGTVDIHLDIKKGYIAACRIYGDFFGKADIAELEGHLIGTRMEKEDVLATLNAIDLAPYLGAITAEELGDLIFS

| Compound | lipoylation of GcvH / GcvH-L, anti-lipoyl immunoblot (EcoLplA) | lipoylation of GcvH-L, anti-lipoyl immunoblot (LplA2 (S. pyogenes)) | lipoylation of GcvH-L, anti-lipoyl immunoblot (SauLplA2) | lipoylation of GcvH / GcvH-L, anti-lipoyl immunoblot (SauLplA1) | X-ray crystallography (crystal soak) (SpySirTM) |
| --- | --- | --- | --- | --- | --- |
| O=C(O)CCCC[C@@H]1CCSS1 (racemic) [lipoic acid] | EcoLplA readily modifies all three GcvHs | both operonal LplA2s efficiently transferred lipoic acid (LA) onto GcvH-L | both operonal LplA2s efficiently transferred lipoic acid (LA) onto GcvH-L | SauLplA1 appears to be indiscriminative toward both S. aureus GcvHs | – |
| NC(=O)c1ccc[n+]([C@@H]2O[C@H](COP(=O)(O)OP(=O)(O)OC[C@H]3O[C@@H](n4cnc5c(N)ncnc54)[C@H](O)[C@@H]3O)[C@@H](O)[C@H]2O)c1 [NAD^+] | – | – | – | – | The ligand-SpySirTM complexes reveal that the general mode of NAD^+ binding to SpySirTM is similar |
